The text below walks through data of patent publication US4020111A, “Propynyloxy alkyl arene insecticides” (priority 1975, dated 1977).

One data set concerns houseflies. Description: percent kill with Diazinon, Table XXVII (strain not given). The class given is in vivo, housefly. The note with it: Diazinon 5 + synergist 10 μg/fly, 1440 min.
Another data set concerns mice. Kind of data set: acute toxicity of Dimetilan alone and of synergist alone (intraperitoneal). The class given is in vivo, Swiss albino white male mice. The note with it: synergist alone 1000 mg/kg ip, 72 hours, of eight mice.
Data set [1] concerns German male cockroaches (Blatella Germanicus). Kind of data set: topical application to thorax, 24 hour mortality of German male cockroaches. The format is in vivo, German cockroach (Blatella Germanicus). The procedure:
The synergistic effect with mobam of synergist compounds I-B, II-H, II-K and IV-C is further illustrated by the 24 hour mortality data of German male cockroaches (Blatella Germanicus) shown in Table XXXX. The synergists and insecticide were diluted in acetone and applied in small droplets to the thorax of the insect. These doses of synergist alone gave zero percent insect mortality.
The synergistic effect with GS 13005 of compounds I-B, II-H, II-K, II-P, II-Q, II-R and IV-C is illustrated by the 24 hour mortality of German male cockroaches shown in Table XXXXI. These doses of synergist alone caused zero percent insect mortality.

With `C#CCON=C(C)c1ccc(Cl)cc1` [I-D], in the data set on houseflies, the percent kill worked out at 100%.
Still for that read-out and setting: to `C#CCON=Cc1ccc(Cl)cc1Cl` [I-G] belongs 90%.
As for `C#CCOCc1ccc(Cl)c(Cl)c1Cl` [II-D], in the data set on mice, the “number of mice dead” value amounted to 0.
Regarding `C#CCOCc1c(Cl)cccc1[N+](=O)[O-]` [II-K], the “insect mortality, synergist alone” value in data set [1] (synergist alone at doses of Table XXXX) and in data set [1] (synergist alone at doses of Table XXXXI) was “zero” each time. In the data set with mice, the “number of mice dead” value came to 1.
